What was measured:
giant foxtail = test: Test B pre-/postemergence herbicide test; format: in vivo, Setaria faberi; conditions: for Plant response rating, Foxtail, Giant: preemergence; for Foxtail, Giant plant response rating: postemergence, visual rating, scale 0 (no effect) to 100 (complete control)
In short: (§1)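 Visual rating, 0 (no effect) to 100 (complete control), versus untreated controls after 13–15 d in greenhouse. Pre- and postemergence applications (postemergence plants 2–18 cm, 1–4 leaves); flooded paddy arm at 2-leaf stage. Compounds in non-phytotoxic solvent plus surfactant.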

pigweed = test: Test B pre-/postemergence herbicide test; format: in vivo, Amaranthus retroflexus; conditions: for Plant response rating, Pigweed: preemergence; for Pigweed plant response rating: postemergence, visual rating, scale 0 (no effect) to 100 (complete control)
In short: as §1

Surinam grass = test: Test C pre-/postemergence herbicide test; format: in vivo, Urochloa decumbens; conditions: for Surinam Grass plant response rating: 500 g ai/ha
In short: (§2)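 Preemergence: seeds planted and treated with compound in non-phytotoxic solvent with surfactant; postemergence: plants at 2 to 18 cm (1- to 4-leaf stage) sprayed likewise. Kept in greenhouse 12 to 14 days, then visually rated against controls, 0 (no effect) to 100 (complete control).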

large crabgrass = test: Test C pre-/postemergence herbicide test; format: in vivo, Digitaria sanguinalis; conditions: for Crabgrass, Large plant response rating: 500 g ai/ha
In short: as §2

goosegrass = test: Test C pre-/postemergence herbicide test; format: in vivo, Eleusine indica; conditions: for Goosegrass plant response rating: 500 g ai/ha
In short: as §2

kochia = test: Test C pre-/postemergence herbicide test; format: in vivo, Kochia scoparia; conditions: for Kochia plant response rating: 500 g ai/ha
In short: as §2

lambsquarters = test: Test C pre-/postemergence herbicide test; format: in vivo, Chenopodium album; conditions: for Lambsquarters plant response rating: 500 g ai/ha
In short: as §2

common ragweed = test: Test C pre-/postemergence herbicide test; format: in vivo, Ambrosia elatior; design: key to Plant response rating, Ragweed: 0 = no effect, 100 = complete control; conditions: for Ragweed plant response rating: 500 g ai/ha
In short: as §2

[1] = test system: smallflower umbrella sedge; test: Test C flooded paddy test; format: in vivo, Cyperus difformis
[2] = 500 g ai/ha, visual rating 0-100, 0 no effect, 100 complete control
[3] = 125 g ai/ha, 0 to 100 scale, 0 is no effect, 100 is complete control
[4] = 125 g ai/ha, scale 0 (no effect) to 100 (complete control), visual, 12 to 14 days, preemergence
[5] = Postemergence, 250 g ai/ha, scale 0 to 100, 0 no effect, 100 complete control
[6] = Preemergence, scale 0 to 100, 0 no effect, 100 complete control
[7] = postemergence, 125 g ai/ha, scale 0 to 100
[8] = postemergence, 62 g ai/ha, scale 0 to 100
[9] = 250 g ai/ha, scale 0 to 100 (0 no effect, 100 complete control), visual, 12 to 14 days, preemergence
[10] = 62 g ai/ha, scale 0 to 100 (0 no effect, 100 complete control)
[11] = 125 g ai/ha, scale 0 to 100 (0 no effect, 100 complete control)

C#CCNC(=O)c1cccc(NC(=O)c2cc(C(C)(C)C)nn2CC)n1 [Compound 147]
Plant response rating, Foxtail, Giant (giant foxtail; [2]): 100 | Foxtail, Giant plant response rating (giant foxtail; 125 g ai/ha): 30 | Foxtail, Giant plant response rating (giant foxtail; 500 g ai/ha): 40 | Plant response rating, Foxtail, Giant (giant foxtail; [3]): 70 | Plant response rating, Pigweed (pigweed; [2]): 100 | Pigweed plant response rating (pigweed; 125 g ai/ha): 80 | Pigweed plant response rating (pigweed; 500 g ai/ha): 90 | Plant response rating, Pigweed (pigweed; [3]): 100 | Plant response rating (0 = no effect, 100 = complete control), Surinam Grass (Surinam grass; 62 g ai/ha, preemergence): 0 | Plant response rating, Surinam Grass (Surinam grass; [4]): 10 | Surinam Grass plant response rating (Surinam grass; Postemergence, scale 0 to 100): 60 | Plant response rating, Surinam Grass (Surinam grass; [5]): 30 | Surinam Grass plant response rating (Surinam grass; [6]): 60 | Plant response rating, Surinam Grass (Surinam grass; [7]): 0 | Plant response rating, Surinam Grass (Surinam grass; [8]): 0 | Plant response rating (0 = no effect, 100 = complete control), Crabgrass, Large (large crabgrass; 62 g ai/ha, preemergence): 0 | Plant response rating, Crabgrass, Large (large crabgrass; [4]): 50 | Plant response rating, Crabgrass, Large (large crabgrass; [9]): 90 | Crabgrass, Large plant response rating (large crabgrass; Postemergence, scale 0 to 100): 60 | Plant response rating, Crabgrass, Large (large crabgrass; [5]): 10 | Crabgrass, Large plant response rating (large crabgrass; [6]): 100 | Plant response rating, Crabgrass, Large (large crabgrass; [7]): 0 | Plant response rating, Crabgrass, Large (large crabgrass; [8]): 0 | Plant response rating (0 = no effect, 100 = complete control), Goosegrass (goosegrass; 62 g ai/ha, preemergence): 0 | Plant response rating, Goosegrass (goosegrass; [4]): 20 | Goosegrass plant response rating (goosegrass; Postemergence, scale 0 to 100): 5 | Plant response rating, Goosegrass (goosegrass; [5]): 5 | Goosegrass plant response rating (goosegrass; [6]): 80 | Plant response rating, Goosegrass (goosegrass; [7]): 0 | Plant response rating, Goosegrass (goosegrass; [8]): 0 | Plant response rating, Kochia (kochia; [4]): 40 | Kochia plant response rating (kochia; Postemergence, scale 0 to 100): 80 | Plant response rating, Kochia (kochia; [5]): 50 | Kochia plant response rating (kochia; [6]): 100 | Plant response rating, Kochia (kochia; [7]): 10 | Plant response rating, Kochia (kochia; [8]): 5 | Plant response rating (0 = no effect, 100 = complete control), Lambsquarters (lambsquarters; 62 g ai/ha, preemergence): 70 | Plant response rating, Lambsquarters (lambsquarters; [4]): 90 | Lambsquarters plant response rating (lambsquarters; Postemergence, scale 0 to 100): 100 | Plant response rating, Lambsquarters (lambsquarters; [5]): 100 | Lambsquarters plant response rating (lambsquarters; [6]): 100 | Plant response rating, Lambsquarters (lambsquarters; [7]): 100 | Plant response rating, Lambsquarters (lambsquarters; [8]): 90 | Plant response rating (0 = no effect, 100 = complete control), Ragweed (common ragweed; 62 g ai/ha, preemergence): 0 | Plant response rating, Ragweed (common ragweed; [4]): 0 | Ragweed plant response rating (common ragweed; Postemergence, scale 0 to 100): 10 | Plant response rating, Ragweed (common ragweed; [5]): 10 | Ragweed plant response rating (common ragweed; [6]): 70 | Plant response rating, Ragweed (common ragweed; [7]): 0 | Plant response rating, Ragweed (common ragweed; [8]): 0 | Sedge, Umbrella plant response rating ([1]; 16 g ai/ha, scale 0 to 100): 0 | Sedge, Umbrella plant response rating ([1]; 31 g ai/ha, scale 0 to 100): 20 | Sedge, Umbrella plant response rating [1, 10]: 30 | Sedge, Umbrella plant response rating [1, 11]: 50

CCNC(=O)c1cccc(NC(=O)c2cc(C(C)(C)C)nn2CC)n1 [Compound 144]
Plant response rating, Foxtail, Giant (giant foxtail; [2]): 100 | Foxtail, Giant plant response rating (giant foxtail; 125 g ai/ha): 40 | Foxtail, Giant plant response rating (giant foxtail; 500 g ai/ha): 90 | Plant response rating, Foxtail, Giant (giant foxtail; [3]): 100 | Plant response rating, Pigweed (pigweed; [2]): 100 | Pigweed plant response rating (pigweed; 125 g ai/ha): 100 | Pigweed plant response rating (pigweed; 500 g ai/ha): 100 | Plant response rating, Pigweed (pigweed; [3]): 100 | Plant response rating (0 = no effect, 100 = complete control), Surinam Grass (Surinam grass; 62 g ai/ha, preemergence): 20 | Plant response rating, Surinam Grass (Surinam grass; [4]): 40 | Surinam Grass plant response rating (Surinam grass; Postemergence, scale 0 to 100): 40 | Plant response rating, Surinam Grass (Surinam grass; [5]): 40 | Surinam Grass plant response rating (Surinam grass; [6]): 70 | Plant response rating, Surinam Grass (Surinam grass; [7]): 0 | Plant response rating, Surinam Grass (Surinam grass; [8]): 0 | Plant response rating (0 = no effect, 100 = complete control), Crabgrass, Large (large crabgrass; 62 g ai/ha, preemergence): 50 | Plant response rating, Crabgrass, Large (large crabgrass; [4]): 70 | Plant response rating, Crabgrass, Large (large crabgrass; [9]): 85 | Crabgrass, Large plant response rating (large crabgrass; Postemergence, scale 0 to 100): 100 | Plant response rating, Crabgrass, Large (large crabgrass; [5]): 100 | Crabgrass, Large plant response rating (large crabgrass; [6]): 100 | Plant response rating, Crabgrass, Large (large crabgrass; [7]): 10 | Plant response rating, Crabgrass, Large (large crabgrass; [8]): 0 | Plant response rating (0 = no effect, 100 = complete control), Goosegrass (goosegrass; 62 g ai/ha, preemergence): 30 | Plant response rating, Goosegrass (goosegrass; [4]): 60 | Goosegrass plant response rating (goosegrass; Postemergence, scale 0 to 100): 20 | Plant response rating, Goosegrass (goosegrass; [5]): 10 | Goosegrass plant response rating (goosegrass; [6]): 80 | Plant response rating, Goosegrass (goosegrass; [7]): 5 | Plant response rating, Goosegrass (goosegrass; [8]): 5 | Plant response rating (0 = no effect, 100 = complete control), Kochia (kochia; 62 g ai/ha, preemergence): 75 | Plant response rating, Kochia (kochia; [4]): 80 | Kochia plant response rating (kochia; Postemergence, scale 0 to 100): 85 | Plant response rating, Kochia (kochia; [5]): 70 | Kochia plant response rating (kochia; [6]): 100 | Plant response rating, Kochia (kochia; [7]): 65 | Plant response rating (0 = no effect, 100 = complete control), Lambsquarters (lambsquarters; 62 g ai/ha, preemergence): 95 | Plant response rating, Lambsquarters (lambsquarters; [4]): 95 | Lambsquarters plant response rating (lambsquarters; Postemergence, scale 0 to 100): 100 | Plant response rating, Lambsquarters (lambsquarters; [5]): 100 | Lambsquarters plant response rating (lambsquarters; [6]): 100 | Plant response rating, Lambsquarters (lambsquarters; [7]): 100 | Plant response rating, Lambsquarters (lambsquarters; [8]): 100 | Plant response rating (0 = no effect, 100 = complete control), Ragweed (common ragweed; 62 g ai/ha, preemergence): 0 | Plant response rating, Ragweed (common ragweed; [4]): 30 | Ragweed plant response rating (common ragweed; Postemergence, scale 0 to 100): 80 | Plant response rating, Ragweed (common ragweed; [5]): 50 | Ragweed plant response rating (common ragweed; [6]): 80 | Plant response rating, Ragweed (common ragweed; [7]): 0 | Plant response rating, Ragweed (common ragweed; [8]): 0 | Sedge, Umbrella plant response rating [1, 10]: 80 | Sedge, Umbrella plant response rating [1, 11]: 80 | Sedge, Umbrella plant response rating ([1]; 250 g ai/ha, scale of 0 to 100, 0 is no effect, 100 is complete control): 80 | Plant response rating, Sedge, Umbrella ([1]; 500 g ai/ha, visual rating after 12 to 14 days, scale 0 to 100 (0 no effect, 100 complete control)): 90

Source: patent US20060069132A1, “Azolecarboxamide herbicides” (priority 2004, published 2006)
